In the supplement of paper PMC8612539:
Converted amounts (≈) assume the structure as drawn.

Test system: Pasteurella multocida
Test: minimum inhibitory concentration (MIC)
Procedure: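 Broth microdilution MIC (Sensititre BOPO7F bovine plate, CLSI methods) of 19 antimicrobials against field isolates of P. multocida, M. haemolytica, H. somni (deep nasopharyngeal swabs) and E. coli, Enterococcus spp. (rectal swabs) from weaned dairy heifers. Incubation 16-24 h at 35 C. MIC is the lowest concentration preventing visible growth. Values with <= or > lie at the tested range limits. Trimethoprim-sulfamethoxazole is given as the trimethoprim component of a 1:19 mixture.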

CC[C@H]1OC(=O)C[C@@H](O)[C@H](C)[C@@H](O[C@@H]2O[C@H](C)[C@@H](O[C@H]3C[C@@](C)(O)[C@@H](O)[C@H](C)O3)[C@H](N(C)C)[C@H]2O)[C@@H](CC=O)C[C@@H](C)C(=O)/C=C/C(C)=C/[C@@H]1CO[C@@H]1O[C@H](C)[C@@H](O)[C@@H](OC)[C@H]1OC [Tylosin]
Details | minimum inhibitory concentration [µg/mL]
isolate (source animal id): 10 | > 32
isolate (source animal id): 11 | > 32
isolate (source animal id): 12 | > 32
isolate (source animal id): 19 | > 32
isolate (source animal id): 23 | > 32
isolate (source animal id): 26 | > 32
isolate (source animal id): 98 | > 32
isolate (source animal id): 104 | > 32
isolate (source animal id): 115 | > 32
isolate (source animal id): 117 | > 32
isolate (source animal id): 118 | > 32
isolate (source animal id): 121 | > 32
isolate (source animal id): 124 | > 32
isolate (source animal id): 125 | > 32
isolate (source animal id): 128 | > 32
isolate (source animal id): 131 | > 32
isolate (source animal id): 135 | > 32
isolate (source animal id): 136 | > 32
isolate (source animal id): 140 | > 32
isolate (source animal id): 144 | > 32
isolate (source animal id): 146 | > 32
isolate (source animal id): 150 | > 32
isolate (source animal id): 151 | > 32
isolate (source animal id): 153 | > 32
isolate (source animal id): 155 | > 32
isolate (source animal id): 157 | > 32
isolate (source animal id): 160 | > 32
isolate (source animal id): 164 | > 32
isolate (source animal id): 165 | > 32
isolate (source animal id): 167 | > 32
isolate (source animal id): 168 | > 32
isolate (source animal id): 169 | > 32
isolate (source animal id): 170 | > 32
isolate (source animal id): 171 | > 32
isolate (source animal id): 172 | > 32
isolate (source animal id): 173 | > 32
isolate (source animal id): 174 | > 32
isolate (source animal id): 175 | > 32
isolate (source animal id): 176 | > 32
isolate (source animal id): 177 | > 32
isolate (source animal id): 178 | > 32
isolate (source animal id): 179 | 32 (≈ 34.9 µM)
isolate (source animal id): 182 | > 32
isolate (source animal id): 192 | > 32
isolate (source animal id): 193 | 32 (≈ 34.9 µM)
isolate (source animal id): 195 | 32 (≈ 34.9 µM)
isolate (source animal id): 196 | > 32
isolate (source animal id): 197 | > 32
isolate (source animal id): 198 | > 32
isolate (source animal id): 199 | > 32
isolate (source animal id): 200 | > 32
isolate (source animal id): 201 | > 32
isolate (source animal id): 203 | 32 (≈ 34.9 µM)
isolate (source animal id): 204 | > 32
isolate (source animal id): 205 | > 32
isolate (source animal id): 206 | > 32
isolate (source animal id): 207 | 32 (≈ 34.9 µM)
isolate (source animal id): 208 | 32 (≈ 34.9 µM)
isolate (source animal id): 209 | 32 (≈ 34.9 µM)
isolate (source animal id): 210 | > 32
isolate (source animal id): 213 | 32 (≈ 34.9 µM)
isolate (source animal id): 216 | > 32
isolate (source animal id): 223 | > 32
isolate (source animal id): 227 | 32 (≈ 34.9 µM)
isolate (source animal id): 229 | > 32
isolate (source animal id): 233 | > 32
isolate (source animal id): 234 | > 32
isolate (source animal id): 237 | > 32
isolate (source animal id): 241 | > 32
isolate (source animal id): 245 | > 32
isolate (source animal id): 247 | > 32
isolate (source animal id): 250 | > 32
isolate (source animal id): 254 | > 32
isolate (source animal id): 255 | > 32
isolate (source animal id): 258 | 32 (≈ 34.9 µM)
isolate (source animal id): 261 | > 32
isolate (source animal id): 262 | > 32
